Measurements taken from patent US8822383B2, “Germination-stimulant carbamate derivatives and process for preparation thereof” (National University Corporation KOBE UNIVERSITY, priority 2010, dated 2014).

Columns and labels:
[1] = test system: Striga (Striga hermonthica) seeds; test: Test for Germination Stimulation Activity on Striga; format: in vivo; conditions: conditioned Striga hermonthica seeds, 20 μl of 10 μM solution, 30° C., counted 24 hours later; no compound: 0%
Protocol: (§1) First, 10 μmol of each test compound was weighed and dissolved in 2 ml of acetone. Each solution was diluted with distilled water to obtain a 10 μM solution. Next, a bottom of a petri dish was covered with a filter paper, and conditioned seeds of Striga (Striga hermonthica) were placed on the filter paper, and then 20 μl of each diluted solution of test compound was applied to the seeds. For maintaining the humidity, a wet filter paper was prepared as long as water droplets were not dripped from the filter paper, and folded into four, and then placed onto the center of the petri dish. The petri dish was sealed with Parafilm®, and then covered with aluminum foil, and then incubated at 30° C. Twenty four (24) hours later, the number of germinated seeds was counted, and then a germination rate (%) was calculated by using the following formula: Germination rate(%)=(the number of germinated seeds/the total number of seeds)×100 The test compounds and the germination rates are shown in Tables 1 and 2. When no test compound was used in this test, the germination rate was 0%.

[2] = test system: Orobanche (Orobanche minor) seeds; test: Test for Germination Stimulation Activity on Orobanche; format: in vivo; conditions: conditioned Orobanche minor seeds, 20 μl of 10 μM solution, 30° C., counted 4 days after; no compound: 0%
Protocol: as §1, with “of Orobanche (Orobanche minor)” for “of Striga (Striga hermonthica)”, “C. Four (4) days after,” for “C. Twenty four (24) hours later,”, “Tables 3” for “Tables 1”, “and 4.” for “and 2.”

SMILES | Germination rate (%) [1] [%] | Germination rate (%) [2] [%]
CC1=CC(OC(=O)Nc2ccccc2)OC1=O (stereo not shown) [Compound No. 1, 4-methyl-5-oxo-2,5-dihydrofuran-2-yl phenylcarbamate] | 2.6 | 38.8
CC1=CC(OC(=O)NCc2ccccc2)OC1=O (stereo not shown) [Compound No. 2, 4-methyl-5-oxo-2,5-dihydrofuran-2-yl benzylcarbamate] | 38.1 | 61.1
CC1=CC(OC(=O)NCCc2ccccc2)OC1=O (stereo not shown) [Compound No. 3, 4-methyl-5-oxo-2,5-dihydrofuran-2-yl phenethylcarbamate] | 54.0 | 66.9
CC1=CC(OC(=O)N(C)c2ccccc2)OC1=O (stereo not shown) [Compound No. 4, 4-methyl-5-oxo-2,5-dihydrofuran-2-yl methyl(phenyl)carbamate] | 53.5 | 66.3
CC1=CC(OC(=O)N(C)Cc2ccccc2)OC1=O (stereo not shown) [Compound No. 5, 4-methyl-5-oxo-2,5-dihydrofuran-2-yl benzyl(methyl)carbamate] | 48.4 | 75.2
CC1=CC(OC(=O)N(C)CCc2ccccc2)OC1=O (stereo not shown) [Compound No. 6, 4-methyl-5-oxo-2,5-dihydrofuran-2-yl 2-phenethyl(methyl)carbamate] | 28.0 | 30.4
CC1=CC(SC(=S)N(C)c2ccccc2)OC1=O (stereo not shown) [Compound No. 7, 4-methyl-5-oxo-2,5-dihydrofuran-2-yl methyl(phenyl)dithiocarbamate] | 32.6 | 15.3
CC1=CC(SC(=O)N(C)c2ccccc2)OC1=O (stereo not shown) [Compound No. 8, 4-methyl-5-oxo-2,5-dihydrofuran-2-yl methyl(phenyl)thiolcarbamate] | 12.0 | 5.4
CC1=CC(OC(=O)NCCc2cccc(C)c2C)OC1=O (stereo not shown) [Compound No. 9, 4-methyl-5-oxo-2,5-dihydrofuran-2-yl 2-(2,3-dimethylphenyl)ethylcarbamate] | 32.0 | 54.0
CC1=CC(OC(=O)NCCc2ccc(C)c(C)c2)OC1=O (stereo not shown) [Compound No. 10, 4-methyl-5-oxo-2,5-dihydrofuran-2-yl 2-(3,4-dimethylphenyl)ethylcarbamate] | 43.0 | 48.0
CC1=CC(OC(=O)NCCc2ccc3c(c2)OCO3)OC1=O (stereo not shown) [Compound No. 11, 4-methyl-5-oxo-2,5-dihydrofuran-2-yl 2-(3,4-methylenedioxyphenyl)ethylcarbamate] | 37.0 | 47.0
